Data as given in patent US6372748B1, “Fungicide mixtures based on pyridine amides and fenarimol” (BASF Aktiengesellschaft, priority 1997, dated 2002).

Test system: Puccinia recondita
Test: Curative activity against Puccinia recondita on wheat (wheat leaf rust)
Assay type: in vivo, Puccinia recondita on wheat seedlings of the variety Kanzler
Details: sprayed 1 day after inoculation, rated after 7 days
Experimental: The active ingredients, separately or together, are formulated as a 10% emulsion in a mixture of 63% by weight of cyclohexanone and 27% by weight of emulsifier, and diluted with water to the desired concentration.
Evaluation is carried out by determining the infected leaf areas in percent. These percentages are converted into efficacies. The efficacy (w) is calculated as follows using Abbot's formula: […]
α corresponds to the fungal infection of the treated plants in % and β corresponds to the fungal infection of the untreated (control) plants in % An efficacy of 0 means that the infection level of the treated plants corresponds to that of the untreated control plants; an efficacy of 100 means that the treated plants were not infected.
The expected efficacies of the mixtures of the active ingredients were determined using Colby's formula [R. S. Colby, Weeds 15, 20-22 (1967)] and compared with the observed efficacies.
Colby's formula: E=x+y−x·y/100
E expected efficacy, expressed in % of the untreated control, when using the mixture of the active ingredients A and B at the concentrations a and b x efficacy, expressed in % of the untreated control, when using active ingredient A at a concentration of a y efficacy, expressed in % of the untreated control, when using active ingredient B at a concentration of b Leaves of potted wheat seedlings of the variety “Kanzler” were dusted with spores of leaf rust (Puccinia recondite). Thereafter, the pots were kept for 24 hours in a chamber of high atmospheric humidity (90 to 95%) and 20 to 22° C. During this time, the spores germinated and the germinal tubes penetrated into the leaf tissue. The next day, the infected plants were sprayed to runoff point with an aqeuous formulation of active ingredient prepared from a stock solution consisting of 10% of active ingredient, 63% of cyclohexanone and 27% of emulsifier. After the spray coating had dried on, the test plants were cultivated in a greenhouse at from 20 to 22° C. and from 65 to 70% of relative atmospheric humidity for 7 days. Thereafter, the extent of rust fungus development on the leaves was determined.

[1] = 50 ppm active ingredient in the spray liquor
[2] = 100 ppm active ingredient in the spray liquor

Row | Structure (SMILES) | Efficacy in % of the untreated control (10 ppm active ingredient in the spray liquor) | Efficacy in % of the untreated control (20 ppm active ingredient in the spray liquor) | Efficacy in % of the untreated control [1] | Efficacy in % of the untreated control [2] | Efficacy in % of the untreated control (200 ppm active ingredient in the spray liquor)
1 | OC(c1ccc(Cl)cc1)(c1cncnc1)c1ccccc1Cl (racemic) [Compound II, (±)-(2-Chlorophenyl)(4-chlorophenyl)(pyrimidin-5-yl)methanol, reference compound] | 10% | 20% |  |  | 
2 | O=C(Nc1ccccc1-c1ccc(Cl)cc1)c1cccnc1Cl [Compound I.2] |  |  | 0% | 30% | 
3 | O=C(Nc1ccccc1-c1ccc(F)cc1)c1cccnc1Cl [Compound I.1] |  |  | 0% | 0% | 0%
